From patent US20250333699A1, “METHOD FOR PREPARATION OF CYTOTOXIC T LYMPHOCYTES WITH BROAD TUMOUR-SPECIFIC REACTIVITY AND CHARACTERISTICS OF EARLY DIFFERENTIATION CELLS” (priority 2021, published 2025)

Test system: MAGE antigens
Assay: Expression of MAGE antigens by RT-PCR (Q-PCR) in CD3/CD28-activated lymphocytes
Type: cell-based, human
Details: 10 μM for 2 days in the presence of IL-2 (150 IU/ml); FIG. 3
Protocol: Expression of MAGE antigens was determined as follows. The frozen pellets of cells were thawed, and total RNA was isolated from lymphocytes using the NucleoSpin RNA Plus kit (Macherey-Nagel), and reverse transcribed using SuperScript™ IV VILO™ Master Mix with ezDNase™ Enzyme (Invitrogen) and random hexamers and oligo(dT24) primers. cDNA was amplified in a LightCycler Nano (Roche) using the FastStart Essential DNA Green Master mix (Roche) and previously described primers and conditions (Weinert et al., 2009), except primers for MAGE-A4, provided by RealTimePrimers.com. The data were normalized to GAPDH expression.
The cell suspension was transferred to a 50 ml tube, and the cell concentration was determined. At this stage the culture contains only activated lymphocytes, and upon counting in a Moxi cell counter appear as a single peak of cells with an average size of 10-11 μm. 2×10^7 cells (or all cells) were set for centrifugation. […]
5-Aza-CdR-treated cultures were harvested and centrifuged. […] After this, cells were counted, and 10×10^6 cells were mixed with 10×10^6 thawed lymphocytes, and after centrifugation, resuspended in 20 ml of lymphocyte medium and transferred to a T75 tissue culture flask, side position. […]

## Nc1ncn([C@H]2C[C@H](O)[C@@H](CO)O2)c(=O)n1 [5-aza-CdR, 5-aza-2′-deoxycytidine]
  expression of selected CT antigens of the MAGE family: Robust and consistent expression
